Data taken from BindingDB's records for doi:10.1021/jm020270n (Dainippon Pharmaceutical, 2003).
pKi: −log10 of the molar value.

Target: D(2) dopamine receptor (Rattus norvegicus, UniProt P61169)
Test: Affinity towards Dopamine receptor D2 in rat striatum using [3H]spiperone as radioligand

D(2) dopamine receptor, sequence (P61169 whole entry): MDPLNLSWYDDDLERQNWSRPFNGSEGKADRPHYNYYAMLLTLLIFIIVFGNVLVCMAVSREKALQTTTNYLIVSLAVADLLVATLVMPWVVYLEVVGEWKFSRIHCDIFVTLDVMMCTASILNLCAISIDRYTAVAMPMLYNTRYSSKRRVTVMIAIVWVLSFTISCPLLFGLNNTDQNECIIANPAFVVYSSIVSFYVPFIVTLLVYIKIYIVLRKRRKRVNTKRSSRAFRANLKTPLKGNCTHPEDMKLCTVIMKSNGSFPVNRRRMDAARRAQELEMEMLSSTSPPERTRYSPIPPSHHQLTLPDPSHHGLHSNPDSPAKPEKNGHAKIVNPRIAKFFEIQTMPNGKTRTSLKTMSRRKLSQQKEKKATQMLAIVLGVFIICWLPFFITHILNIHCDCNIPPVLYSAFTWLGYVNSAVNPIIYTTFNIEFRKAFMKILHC

COc1cc(N)c(Cl)cc1C(=O)NC1CC2CCC(C1)N2C (stereo unspecified) [4-amino-5-chloro-2-methoxy-N-(8-methyl-8-azabicyclo[3.2.1]octan-3-yl)benzamide]
pKi: < 6.00
